The subject of data set [1] is Echinochloa oryzicola Vasing. Put plainly: Test Example 1: herbicidal effects in paddy field soil treatment. The class given is in vivo. The arrangement: scale not given here. The note with it: 1000 g active ingredient per hectare, 21st day after treatment. How it is done: (§1) 100-cm^2 plastic pots were filled with paddy field soil. After puddling and leveling, seeds of Echinochloa oryzicola Vasing, Monochoria vaginalis (Burm. f.) Presl var. plantaginea (Roxb.) Solms-Laub., and Scirpus juncoides Roxb. var. ohwianus. T. Koyama were sowed in the pots, and the soil was waterlogged to a water depth of 3 cm. On the next day, a wettable powder formulation prepared according to Formulation Example 1 was diluted with water, and the dilution was added dropwise onto the water surface. The amount of application was an amount equivalent to 1000 g of the active ingredient per hectare. Thereafter, the plants were grown in a greenhouse, and on the 21st day after the treatment, the herbicidal effects were investigated according to the criteria described in Table 71.
(§2) In addition, comparative compound A, comparative compound B, comparative compound C, and comparative compound D in the tables represent Compound Nos. 70, 34, 32, and 31, respectively, as described in EP-283261. The structural formulas of these compounds are presented below.

Data set [2] relates to Scirpus juncoides Roxb. var. ohwianus. T. Koyama. The data set is described as above. The format is in vivo. Details: scale not given here. The following applies: 1000 g active ingredient per hectare, 21st day after treatment. The procedure: as §1, §2
The subject of data set [3] is Monochoria vaginalis (Burm. f.) Presl var. plantaginea (Roxb.) Solms-Laub. Described as above. The class given is in vivo. The arrangement: scale not given here. The following applies: 1000 g active ingredient per hectare, 21st day after treatment. How it is done: as §1, §2
For data set [4], the system named is Echinochloa crus-galli. Put plainly: Test Example 2: herbicidal effects in farmland soil treatment. Details: scale not given here. The class given is in vivo. The note with it: 1000 g active ingredient per hectare, 21st day after treatment.
The subject of data set [5] is Abutilon theophrasti medicus. The description is as above. The format is in vivo. The arrangement: scale not given here. The following applies: 1000 g active ingredient per hectare, 21st day after treatment. The procedure:
(§3) 80-cm^2 plastic pots were filled with farmland soil. Seeds of Abutilon theophrasti medicus and Amaranthus retroflexus were sowed in the pots, and soil was covered. A wettable powder formulation prepared according to Formulation Example 1 was diluted with water, and the dilution was uniformly sprayed on the soil surface with a small sprayer, in an amount equivalent to 1000 liters per hectare, such that 1000 g of the active ingredient was applied per hectare. Thereafter, the plants were grown in a greenhouse, and on the 21st day after the treatment, the herbicidal effects were investigated according to the criteria described in Table 71 shown above.

In data set [6] the test system is Amaranthus retroflexus. The description is as above. The note with it: 1000 g active ingredient per hectare, 21st day after treatment. The format is in vivo. The arrangement: scale not given here. The procedure: as §3
For data set [7], the system named is Setaria viridis. Described as above. The format is in vivo. The arrangement: scale not given here. The following applies: 1000 g active ingredient per hectare, 21st day after treatment.
Data set [8] has as its system Setaria viridis. The experiment in a line: Test Example 3: herbicidal effects in farmland foliar treatment. The arrangement: scale not given here. The class given is in vivo. The note with it: 1000 g active ingredient per hectare, 14th day after treatment.
The test system of data set [9] is Abutilon theophrasti medicus. Described as above. The format is in vivo. Details: scale not given here. The note with it: 1000 g active ingredient per hectare, 14th day after treatment. The procedure: (§4) 80-cm^2 plastic pots were filled with farmland soil. Seeds of Echinochloa crus-galli (L.) P. Beauv. var. crus-galli, Abutilon theophrasti medicus, and Amaranthus retroflexus were sowed in the pots, and the plants were grown for two weeks in a greenhouse. A wettable powder formulation prepared according to Formulation Example 1 was diluted with water, and the dilution was applied by foliar treatment by spraying with a small sprayer over the whole plant from the upper part, in an amount equivalent to 1000 liters per hectare, such that 1000 g of the active ingredient was applied per hectare. Thereafter, the plants were grown in a greenhouse, and on the 14th day after the treatment, the herbicidal effects were investigated according to the criteria described in Table 71 shown above.

In data set [10] the test system is Echinochloa crus-galli (L.) P. Beauv. var. crus-galli. The description is as above. The format is in vivo. The arrangement: scale not given here. The following applies: 1000 g active ingredient per hectare, 14th day after treatment. The procedure:
as §4

Data set [11] has as its system Amaranthus retroflexus. Described as above. The class given is in vivo. The arrangement: scale not given here. The note with it: 1000 g active ingredient per hectare, 14th day after treatment. The procedure:
as §4

On to `Cn1c(=O)c(C(=O)C2=C(O)CCCC2=O)cc2ccccc21` [I-2, 3-(2-hydroxy-6-oxo-1-cyclohexenecarbonyl)-1-methylquinolin-2(1H)-one], for which the melting point (in general, the temperature, or range, at which the solid turns liquid) was in the range of 179 to 181 °C. Also, the “Herbicidal effect index, Echinochloa oryzicola” value in data set [1] was 5. The “Herbicidal effect index, Scirpus juncoides” value in data set [2] is recorded as 5. In addition, the “Herbicidal effect index, Monochoria vaginalis” value in [3] came out at 5.
`Cn1c(=O)c(C(=O)C2=C(O)CCCC2=O)cc2cccnc21` [II-2, 3-(2-hydroxy-6-oxo-1-cyclohexenecarbonyl)-1-methyl-1,8-naphthyridin-2(1H)-one] gave a melting point of 151 to 153 °C. Moreover, the “Herbicidal effect index, Echinochloa crus-galli” value in data set [4] is 5. The “Herbicidal effect index, Abutilon thophrasti” value in data set [5] was determined as 5. For the same molecule, in data set [6], the “Herbicidal effect index, Amaranthus retroflexus” value stood at 5. In addition, the “Herbicidal effect index, Setaria viridis” value in data set [7] was determined as 5. Moreover, in data set [8], the “Herbicidal effect index, Setaria viridis” value is 4. The “Herbicidal effect index, Abutilon theoprasti” value in data set [9] was 5. The “Herbicidal effect index, Echinochloa crus-galli” value in [10] stood at 5. Also, the “Herbicidal effect index, Amaranthus retroflexus” value in data set [11] came out at 5. The “Herbicidal effect index, Echinochloa oryzicola” value in [1] worked out at 5. In data set [2], the “Herbicidal effect index, Scirpus juncoides” value is given as 5. The “Herbicidal effect index, Monochoria vaginalis” value in data set [3] came out at 5.
For the molecule `CCSCn1c(=O)c(C(=O)C2=C(O)CCCC2=O)cc2cccnc21` [II-19, 1-(ethylthiomethyl)-3-(2-hydroxy-6-oxo-1-cyclohexenecarbonyl)-1,8-naphthyridin-2(1H)-one], the melting point was 108 to 110 °C. The “Herbicidal effect index, Echinochloa crus-galli” value in data set [4] came out at 4. Further, the “Herbicidal effect index, Abutilon thophrasti” value in [5] came to 5. Moreover, the “Herbicidal effect index, Amaranthus retroflexus” value in [6] is given as 5. Further, the “Herbicidal effect index, Setaria viridis” value in data set [7] stood at 4. The “Herbicidal effect index, Setaria viridis” value in data set [8] is reported as 5. In [9], the “Herbicidal effect index, Abutilon theoprasti” value came out at 5. Besides, the “Herbicidal effect index, Echinochloa crus-galli” value in data set [10] is reported as 5. In addition, the “Herbicidal effect index, Amaranthus retroflexus” value in data set [11] was found to be 5. Further, in data set [1], the “Herbicidal effect index, Echinochloa oryzicola” value was 5. Besides, the “Herbicidal effect index, Scirpus juncoides” value in [2] came out at 5. In addition, the “Herbicidal effect index, Monochoria vaginalis” value in data set [3] is given as 5.
The molecule `O=C1CCCC(O)=C1C(=O)c1cc2cccnc2n(Cc2ccccc2)c1=O` [II-24, 1-benzyl-3-(2-hydroxy-6-oxo-1-cyclohexenecarbonyl)-1,8-naphthyridin-2(1H)-one] had a melting point of 190 to 192 °C. The “Herbicidal effect index, Echinochloa crus-galli” value in data set [4] was determined as 5. In addition, the “Herbicidal effect index, Abutilon thophrasti” value in [5] came to 5. In [6], the “Herbicidal effect index, Amaranthus retroflexus” value came to 5. For the same molecule, the “Herbicidal effect index, Setaria viridis” value in [7] came to 3. For the same molecule, the “Herbicidal effect index, Echinochloa oryzicola” value in data set [1] stood at 5. The “Herbicidal effect index, Scirpus juncoides” value in data set [2] was determined as 5. Further, the “Herbicidal effect index, Monochoria vaginalis” value in data set [3] was found to be 5.
The molecule `COc1ccccc1Cn1c(=O)c(C(=O)C2=C(O)CCCC2=O)cc2cccnc21` [II-37, 3-(2-hydroxy-6-oxo-1-cyclohexenecarbonyl)-1-(2-methoxybenzyl)-1,8-naphthyridin-2(1H)-one] gave a melting point of 147 to 150 °C. In addition, the “Herbicidal effect index, Echinochloa oryzicola” value in data set [1] stood at 5. Moreover, the “Herbicidal effect index, Scirpus juncoides” value in [2] is given as 5. In addition, in data set [3], the “Herbicidal effect index, Monochoria vaginalis” value was 5.
Turning to `O=C1CCCC(O)=C1C(=O)c1cc2cccnc2n(-c2ccccc2)c1=O` [II-41, 3-(2-hydroxy-6-oxo-1-cyclohexenecarbonyl)-1-phenyl-1,8-naphthyridin-2(1H)-one], the melting point lay in the range of 212 to 214 °C. For the same molecule, the “Herbicidal effect index, Echinochloa crus-galli” value in [4] was determined as 5. Besides, the “Herbicidal effect index, Abutilon thophrasti” value in data set [5] was 5. In addition, the “Herbicidal effect index, Amaranthus retroflexus” value in [6] came out at 5. Moreover, the “Herbicidal effect index, Setaria viridis” value in data set [7] is 5. The “Herbicidal effect index, Setaria viridis” value in data set [8] is listed as 5. Also, in data set [9], the “Herbicidal effect index, Abutilon theoprasti” value worked out at 5. The “Herbicidal effect index, Echinochloa crus-galli” value in data set [10] is given as 5. Moreover, the “Herbicidal effect index, Amaranthus retroflexus” value in [11] came to 5. Further, the “Herbicidal effect index, Echinochloa oryzicola” value in data set [1] is on record as 5. The “Herbicidal effect index, Scirpus juncoides” value in [2] was 5. In addition, the “Herbicidal effect index, Monochoria vaginalis” value in [3] was 5.
As for `Cc1cc(-n2c(=O)c(C(=O)C3=C(O)CCCC3=O)cc3cccnc32)no1` [II-63, 3-(2-hydroxy-6-oxo-1-cyclohexenecarbonyl)-1-(5-methyl-3-isoxazolyl)-1,8-naphthyridin-2(1H)-one], the melting point lay within 113 to 116 °C. Besides, in [4], the “Herbicidal effect index, Echinochloa crus-galli” value came to 4. Moreover, the “Herbicidal effect index, Abutilon thophrasti” value in data set [5] is recorded as 5. The “Herbicidal effect index, Amaranthus retroflexus” value in data set [6] was 5. Besides, the “Herbicidal effect index, Setaria viridis” value in data set [7] was determined as 3. The “Herbicidal effect index, Setaria viridis” value in [8] was 5. Further, in data set [9], the “Herbicidal effect index, Abutilon theoprasti” value came to 5. Further, the “Herbicidal effect index, Echinochloa crus-galli” value in [10] was 5. Besides, the “Herbicidal effect index, Amaranthus retroflexus” value in data set [11] was 5. Also, in data set [1], the “Herbicidal effect index, Echinochloa oryzicola” value came out at 5. Also, in data set [2], the “Herbicidal effect index, Scirpus juncoides” value came to 5. Besides, the “Herbicidal effect index, Monochoria vaginalis” value in [3] is reported as 5.
On to `Cn1c(=O)c(C(=O)C2=C(O)CCCC2=O)cc2ccc(C(F)F)nc21` [II-131], for which the “Herbicidal effect index, Echinochloa crus-galli” value in data set [4] and in [10] was 4 in each case. Further, the “Herbicidal effect index, Abutilon thophrasti” value in [5] is listed as 5. The “Herbicidal effect index, Amaranthus retroflexus” value in data set [6] and in [11] was 5 each time. Moreover, the “Herbicidal effect index, Setaria viridis” value in [7] was found to be 3; in data set [8] it was 4. The “Herbicidal effect index, Abutilon theoprasti” value in data set [9] was 5. The “Herbicidal effect index, Echinochloa oryzicola” value in data set [1] was determined as 5. Also, in data set [2], the “Herbicidal effect index, Scirpus juncoides” value was 5. The “Herbicidal effect index, Monochoria vaginalis” value in data set [3] is listed as 5.
On to `O=C1CCCC(O)=C1C(=O)c1cc2ccc(C(F)F)nc2n(-c2ccccc2)c1=O` [II-133], for which the “Herbicidal effect index, Echinochloa crus-galli” value in [4] and in [10] was 5 throughout. For the same molecule, the “Herbicidal effect index, Abutilon thophrasti” value in [5] worked out at 5. Besides, the “Herbicidal effect index, Amaranthus retroflexus” value in data set [6] and in data set [11] was 5 throughout. For the same molecule, the “Herbicidal effect index, Setaria viridis” value in data set [7] and in [8] was 5 each time. For the same molecule, the “Herbicidal effect index, Abutilon theoprasti” value in [9] is on record as 5. Also, the “Herbicidal effect index, Echinochloa oryzicola” value in data set [1] was 5. Also, in data set [2], the “Herbicidal effect index, Scirpus juncoides” value was found to be 5. Besides, the “Herbicidal effect index, Monochoria vaginalis” value in [3] is 5.
Regarding `Cn1c(=O)c(C(=O)C2=C(O)CCCC2=O)cc2ccc(C(F)(F)Cl)nc21` [II-141], the “Herbicidal effect index, Echinochloa crus-galli” value in data set [4] and in data set [10] was 3 throughout. The “Herbicidal effect index, Abutilon thophrasti” value in [5] came out at 5. The “Herbicidal effect index, Amaranthus retroflexus” value in data set [6] is recorded as 3; in data set [11] it was 4. Also, the “Herbicidal effect index, Setaria viridis” value in data set [7] and in data set [8] was 4 throughout. Besides, in data set [9], the “Herbicidal effect index, Abutilon theoprasti” value turned out to be 5. Also, the “Herbicidal effect index, Echinochloa oryzicola” value in data set [1] came to 5. Moreover, the “Herbicidal effect index, Scirpus juncoides” value in [2] is 5. Besides, the “Herbicidal effect index, Monochoria vaginalis” value in data set [3] worked out at 5.
For `O=C1CCCC(O)=C1C(=O)c1cc2ccc(C(F)(F)Cl)nc2n(-c2ccccc2)c1=O` [II-143], the “Herbicidal effect index, Echinochloa crus-galli” value in [4] and in data set [10] was 5 in each case. Further, in [5], the “Herbicidal effect index, Abutilon thophrasti” value is 5. In addition, the “Herbicidal effect index, Amaranthus retroflexus” value in [6] and in data set [11] was 5 throughout. For the same molecule, the “Herbicidal effect index, Setaria viridis” value in [7] and in data set [8] was 5 in each case. The “Herbicidal effect index, Abutilon theoprasti” value in [9] was 5. In addition, the “Herbicidal effect index, Echinochloa oryzicola” value in data set [1] amounted to 5. The “Herbicidal effect index, Scirpus juncoides” value in data set [2] was found to be 5. In addition, the “Herbicidal effect index, Monochoria vaginalis” value in [3] is 5.

The values are drawn from patent US8334236B2, “Ring-fused 2-pyridone derivatives and herbicides” (Kumiai Chemical Industry Co., Ltd., priority 2009, dated 2012).
